Values joined by “and” are separate entries in the source; they are usually repeats but may differ in a detail not shown here. Equal entries are not always repeated. Where two headings read alike, the source gives them in different places.
Experiments:
[1] = test system: release of soluble CD23 from RPMI 8866 cell plasma membranes; assay: RPMI 8866 cell membrane CD23 cleavage activity assay; type: biochemical, human; conditions: RPMI 8866 membranes, 37° C., sCD23 by EIA; read-out: IC50 (50% inhibition of production of sCD23)
Protocol: Procedure 1: The ability of test compounds to inhibit the release of soluble CD23 was investigated by use of the following procedure.
RPMI 8866 Cell Membrane CD23 Cleavage Activity Assay
Plasma membranes from RPMI 8866 cells, a human Epstein-Barr virus transformed B-cell line (Sarfati et al., Immunology 60 [1987] 539-547) expressing high levels of CD23 are purified using an aqueous extraction method. Cells resuspended in homogenization buffer (20 mM HEPES pH 7.4, 150 mM NaCl, 1.5 mM MgCl2, 1 mM DTT) are broken by N2 cavitation in a Parr bomb and the plasma membrane fraction mixed with other membranes is recovered by centrifugation at 10,000×g. […]
The fractionated membranes are incubated at 37° C. for times up to 4 hrs to produce fragments of CD23 which are separated from the membrane by filtration in 0.2 micron Durapore filter plates (Millipore) after quenching the assay with 5 uM Preparation 1 from P 30994. sCD23 released from the membrane is determined using the EIA kit from The Binding Site (Birmingham, UK) or a similar one utilizing MHM6 anti-CD23 mAb [Rowe et al., Int. […] The amount of soluble CD23 made by 0.5 ug membrane protein in a total volume of 50 ul phosphate-buffered saline is measured by EIA and compared to the amount made in the presence of various concentrations of inhibitors. […]

[2] = i.v. pharmacokinetic parameters and oral bioavailability in male Cynomolgus monkeys; type: in vivo
Protocol: (§1) Procedure 4: The bioavailability of test compounds was investigated using the following bio-equivalence studies.
A Study to Estimate the i.v. Pharmacokinetic Parameters and Oral Bioavailability in Male Cynomolgus Monkeys
This study was conducted using a crossover design on two separate studv days, seven days apart. Three male Cynomolgus monkeys were used for this study. On both study days, a catheter was placed in a saphenous vein for collection of blood samples. On study day one, a catheter also was temporarily placed in a contralateral saphenous vein for i.v. infusion.
(§2) On study day one, each animal (fasted) received test compound (2.0 umol/kg target dose) as a 1-h intravenous infusion (4.0 mL/kg). The dose solution was prepared in 20% aqueous Encapsin® (pH=8.0) and contained 1% DMSO. Encapsin® (Cerestar USA Inc., Hammond, Ind.) is hydroxypropyl-beta-cyclodextrin, a cyclic oligosaccharide (7 glucose units) used to enhance solubility in the preparation of dose solutions that otherwise would require formulation using non-aqueous solvents.
On study day two, each animal (fasted) received test compound (6.0 umol/kg target dose) by oral gavage (8.0 mL/kg). The dose solution was prepared in 5% aqueous succinated porcine gelatin (pH=8.0) and contained 1% DMSO.
Blood samples were obtained from the femoral vein catheter; plasma was isolated by centrifugation. Plasma concentrations of test compound were quantified by LC/MS/MS (LLQ=10 ng/mL). Noncompartmental methods were used for pharmacokinetic analysis of plasma concentration versus time data.

[3] = i.v. pharmacokinetic parameters and oral bioavailability in male Sprague Dawley rat; type: in vivo; conditions: for half-life: rat, 2 mg/kg, two-compartment model
Protocol: as §1
A Study to Estimate the i.v. Pharmacokinetic Parameters and Oral Bioavailability in Male Sprague Dawley Rat
This study was carried out using a crossover design on four separate study days. Three rats received surgically-implanted femoral vein catheters for infusion of test molecules at least three days prior to the start of the study. All doses in this study were prepared using crystalline test compound.
On study day one, the animals (fed) received test compound as a 30-min intravenous infusion at a target dosage of 4.0 umol/kg (4.0 mL/kg). The dose solution was prepared in 20% aqueous Encapsin® (pH=8.0) and contained 1% DMSO. Encapsin® (Cerestar USA Inc., Hammond, Ind.) is hydroxypropyl-beta-cyclodextrin, a cyclic oligosaccharide used to enhance solubility of compounds that otherwise would require formulation using non-aqueous solvents.
On study day two, the animals (fasted) received test compound as a solution at a target dosage of 8 umol/kg by oral gavage (16 mL/kg). The dose solution was prepared in 5% aqueous succinated porcine gelatin (pH=7.5) and contained 1% DMSO. Blood samples were collected from a lateral tail vein. A 25-uL aliquot of each whole blood sample was added to 25 uL of water and allowed to stand on ice for approximately 5 min to facilitate complete hemolysis; samples then were stored frozen until analvsis. Blood concentrations of test compound were quantified by LC/MS/MS (LLQ=10.0 ng/mL). […] Various compartmental models and weighting paradigms were employed; a two-compartment model with first-order elimination from the central compartment and iterative least squares weighting with a weight of 1/Y^2 provided the best fit to the observed data, according to standard model selection criteria (i.e., Akaike's Information Criterion, Schwartz Criterion, and sum of squared residuals). Pharmacokinetic parameters were calculated using the best-fit compartmental model; all calculations that required the use of AUC values (including bioavailability) were performed using the AUC recovered from noncompartmental analysis.

[4] = i.v. pharmacokinetic parameters and oral bioavailability in male Beagle dogs; type: in vivo; conditions: Dog
Protocol: as §1
A Study to Estimate the i.v. Pharmacokinetic Parameters and Oral Bioavailability in Male Beagle Dogs
This study was conducted using a crossover design on two separate study days, seven days apart. Three male Beagle dogs were used in this study. On each study day, a catheter was temporarily placed in a cephalic vein for blood sampling; on study day one only, a catheter was also temporarily placed in a saphenous vein for i.v. infusion.
as §2, with “animal” for “animal (fasted)”
On study day two, each animal received test compound (6.0 umol/kg target dose ) by oral gavage (8.0 mL/kg). The dose solution was prepared in 5% aqueous succinated porcine gelatin (pH=7.5) and contained 1% DMSO.
Plasma concentrations of test compound were quantified by LC/MSIMS (LLQ=10 ng/mL). Noncompartmental methods were used for analysis of plasma concentration versus time data.

[5] = test system: TNFα release from human monocytes; assay: Inhibition of release of TNFα from human monocytes stimulated by LPS; type: cell-based; conditions: at 10 uM; LPS 200 ng/ml, 18-20 hrs
Protocol: Procedure 3: The ability of test compounds to inhibit TNF release was investigated using the following procedure.
Assay for Inhibition of Release of TNFα From Human Monocytes Stimulated by Lipopolysaccharide (LPS) Endotoxin
Human monocytes, cultured in RPMI 1640 medium supplemented with 10% fetal calf serum, are centrifuged at 1000×g for 5 min and then resuspended in medium at 2×10^6 cells/ml. The cell suspension is aliquoted in 24 well plates, 1 ml per well. Compounds to be tested are dissolved in neat dimethyl sulfoxide (DMSO) and added to culture with the final DMSO concentration at 0.1%. Compounds are added to cells in triplicate wells. TNF α release is stimulated by addition of LPS to the cells at a final concentration of 200 ng/ml. Appropriate control cultures are set up in triplicates also. The plates are incubated for 18-20 hrs at 37° C., 5% CO2, then centrifuged at 1000×g for 5 min. A specific ELISA for human TNFα (SmithKline Beecham) is used to measure TNF levels in the cell-free culture supernatants.

[6] = Monkey, iv dose = 0.92 mg/kg, individual values, 0.92 mg/kg
[7] = male, Sprague Dawley, whole blood, iv, i.v. dose = 2.0 mg/kg
[8] = male, Beagle, plasma, iv dose = 0.96 mg/kg

IC50 [1]: 0.06 µM
Oral F ([2]; Monkey, fasted, oral gavage 2.8 mg/kg Solution vs iv 0.92 mg/kg, individual values): 21.1% and 6.0% and 22.5%
MRT [2, 6]: 5.18 h and 0.992 h and 1.14 h
T1/2 [2, 6]: 11.5 h and 1.42 h and 3.47 h
Vdss [2, 6]: 4.09 L/kg and 1.11 L/kg and 0.827 L/kg
Cmax ([2]; male, cynomolgus monkey, 1-h i.v. infusion, iv dose = 0.92 mg/kg, plasma): 1010 ± 175 ng/mL
clearance ([2]; male, cynomolgus monkey, plasma, iv dose = 0.92 mg/kg): 14.7 ± 3.6 mL/min/kg
Oral F ([3]; fasted, oral gavage 3.7 mg/kg solution vs i.v. 2.0 mg/kg): 50.6 ± 10.6%
half-life ([3]; male, Sprague Dawley, whole blood, iv, i.v. dose = 2.0 mg/kg, read-out: T1/2 (α)): 0.18 ± 0.0883 h
half-life ([3]; male, Sprague Dawley, whole blood, iv, i.v. dose = 2.0 mg/kg, read-out: T1/2 (β)): 3.9 ± 2.32 h
Cmax ([3]; male, Sprague Dawley, whole blood, iv, 30-min i.v. infusion, i.v. dose = 2.0 mg/kg, blood): 1340 ± 296 ng/mL
MRT [3, 7]: 2.13 h
clearance [3, 7]: 26.4 ± 8.5 mL/min/kg
Vd ([3]; male, Sprague Dawley, whole blood, iv, i.v. dose = 2.0 mg/kg, read-out: Vdss): 3.25 ± 1.7 L/kg
T1/2 ([4]; iv dose = 0.96 mg/kg, individual values, 0.96 mg/kg): 4.2 h and 4.32 h and 0.817 h
Oral F ([4]; oral gavage, po dose = 2.7 mg/kg vs iv 0.96 mg/kg): 29.0 ± 3.7%
MRT [4, 8]: 1.07 h
clearance [4, 8]: 10.6 ± 4.5 mL/min/kg
Vd ([4]; male, Beagle, plasma, iv dose = 0.96 mg/kg, read-out: Vdss): 0.563 ± 0.204 L/kg
Cmax ([4]; male, Beagle, 1-h i.v. infusion, iv dose = 0.96 mg/kg, plasma): 1410 ± 465 ng/mL
Compound: CNC(=O)[C@@H](NC(=O)[C@H](Cc1ccc2ccccc2c1)[C@H](OC(C)C)C(=O)NO)C(C)(C)C [N′-[4-(N-hydroxyamino)-3S-isopropoxy-2R-(2-naphthylmethyl)succinyl]-S-tert-leucine methylamide]
effect on TNF release [5]: no effect

— patent US6673965B1, “Hydroxamic acid derivative as inhibitor of the formation of soluble human CD23” (SmithKline Beecham P.L.C., priority 1999, dated 2004)
